For 35 molecules, IC50 results are on record in ChEMBL document CHEMBL1123274, “Azasteroids: structure-activity relationships for inhibition of 5 alpha-reductase and of androgen receptor binding” (J Med Chem, 1986).

The target of one test is T1, Androgen receptor (Rattus norvegicus, UniProt P15207).
T1 sequence (P15207 whole entry): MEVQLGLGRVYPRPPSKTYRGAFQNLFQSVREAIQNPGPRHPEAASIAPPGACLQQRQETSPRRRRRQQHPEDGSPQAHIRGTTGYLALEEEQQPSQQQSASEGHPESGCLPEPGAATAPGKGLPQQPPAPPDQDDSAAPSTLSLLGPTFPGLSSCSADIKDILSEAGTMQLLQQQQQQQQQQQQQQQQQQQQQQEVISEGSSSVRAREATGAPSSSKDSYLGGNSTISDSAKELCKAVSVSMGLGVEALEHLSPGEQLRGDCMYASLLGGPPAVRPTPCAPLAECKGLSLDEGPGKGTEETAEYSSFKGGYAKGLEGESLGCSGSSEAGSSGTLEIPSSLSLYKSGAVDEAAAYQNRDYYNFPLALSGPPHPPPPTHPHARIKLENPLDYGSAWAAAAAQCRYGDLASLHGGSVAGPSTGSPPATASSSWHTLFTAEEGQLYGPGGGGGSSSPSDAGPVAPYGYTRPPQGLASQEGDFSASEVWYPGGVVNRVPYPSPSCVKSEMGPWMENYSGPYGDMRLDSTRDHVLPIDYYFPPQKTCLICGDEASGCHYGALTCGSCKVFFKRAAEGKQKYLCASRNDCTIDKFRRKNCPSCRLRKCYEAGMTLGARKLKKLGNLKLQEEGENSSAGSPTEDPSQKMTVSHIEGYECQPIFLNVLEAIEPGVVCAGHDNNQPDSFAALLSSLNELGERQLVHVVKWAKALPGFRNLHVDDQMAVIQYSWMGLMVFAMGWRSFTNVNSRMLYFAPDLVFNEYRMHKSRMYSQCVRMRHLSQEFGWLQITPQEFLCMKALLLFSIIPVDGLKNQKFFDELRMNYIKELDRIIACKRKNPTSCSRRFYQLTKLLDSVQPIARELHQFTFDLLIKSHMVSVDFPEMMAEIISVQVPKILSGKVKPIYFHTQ
In words: In vitro antagonist activity against rat prostatic androgen receptor (AR).

Test [1] deals with T2, Steroid 5-alpha-reductase (Rattus norvegicus, UniProt P24008+P31214).
T2 sequence (P24008 whole entry): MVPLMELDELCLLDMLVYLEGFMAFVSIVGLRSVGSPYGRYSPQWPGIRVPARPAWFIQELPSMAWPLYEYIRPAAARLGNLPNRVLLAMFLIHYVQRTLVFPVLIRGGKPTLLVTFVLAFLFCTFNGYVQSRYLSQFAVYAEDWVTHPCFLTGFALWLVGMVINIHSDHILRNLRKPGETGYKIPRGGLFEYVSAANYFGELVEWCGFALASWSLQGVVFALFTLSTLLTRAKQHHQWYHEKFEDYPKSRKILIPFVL
T2 sequence (P31214 whole entry): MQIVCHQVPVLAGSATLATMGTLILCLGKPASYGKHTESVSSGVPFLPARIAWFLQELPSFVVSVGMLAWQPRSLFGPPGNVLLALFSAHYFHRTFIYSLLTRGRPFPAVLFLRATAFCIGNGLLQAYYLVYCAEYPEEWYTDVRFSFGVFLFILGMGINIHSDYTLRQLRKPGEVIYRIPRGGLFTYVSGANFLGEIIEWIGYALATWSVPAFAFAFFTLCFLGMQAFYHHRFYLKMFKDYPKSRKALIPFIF
In words: Inhibition of Steroid 5-alpha-reductase from rat prostate. The class given is tissue-based, Prostate gland.

The target in test [2] is T2, Steroid 5-alpha-reductase. The test is described as follows: In vitro inhibitory activity against rat prostatic steroid 5-alpha-reductase. The class given is protein assay.

The term IC50 denotes the concentration that inhibits the measured activity by half. A lower IC50 goes with inhibition by little substance. As to `CC(=O)[C@H]1CC[C@H]2[C@@H]3CCC4N(C)C(=O)CC[C@]4(C)[C@H]3CC[C@]12C` (stereo partly drawn), the values for the half-inhibitory concentration (IC50) (against Androgen receptor; in test [1]) were 210 nM and 2.3e-08 M, respectively.

Consider `C[C@]12CCC(=O)C=C1CC[C@@H]1[C@@H]2CC[C@@]2(C)[C@H]1CC[C@@]21CCCO1`, for which the values for the IC50 (against Androgen receptor; in test [1]) were 89 nM and 1.1e-06 M, respectively. On to `C=C1C[C@@H]2[C@H](CC[C@@]3(C)[C@H]2CC[C@]3(OC(C)=O)C(C)=O)[C@@]2(C)CCC(=O)C=C12`, for which the half-inhibitory concentration (IC50) in test [1] was found to be 1.6e-07 M. On to `CC(O)[C@H]1CC[C@H]2[C@@H]3CCC4NC(=O)CC[C@]4(C)[C@H]3CC[C@]12C` (stereo partly drawn), for which the IC50 was 9300 nM on Androgen receptor and 4.5e-08 M in test [1]. Take `CCN(CC)C(=O)[C@H]1CC[C@H]2[C@@H]3CCC4=C(C#N)C(=O)CC[C@]4(C)[C@H]3CC[C@]12C`: the figures for the concentration for half-maximal inhibition (IC50) (against Androgen receptor; in test [1]) were 1300 nM and 2.9e-08 M, respectively. The matching figures for `CC(O)[C@H]1CC[C@H]2[C@@H]3CCC4N(C)C(=O)CC[C@]4(C)[C@H]3CC[C@]12C` (stereo partly drawn): 74 nM and 1.9e-08 M. The matching figures for `C[C@]12CCC(=O)CC1CC[C@@H]1[C@@H]2CC[C@@]2(C)[C@H]1CC[C@@]21CCCO1` (stereo partly drawn): 23 nM and greater than 1e-06 M. Regarding `CC(=O)[C@H]1CC[C@H]2[C@@H]3CCC4NC(=O)CC[C@]4(C)[C@H]3CC[C@]12C` (stereo partly drawn), the IC50 on Androgen receptor was determined as 68000 nM; in test [1], 5e-08 M. Regarding `C[C@]12CCC(=O)C[C@@H]1CC[C@@H]1[C@@H]2CC[C@]2(C)[C@@H](O)CC[C@@H]12` [STANOLONE], the concentration for half-maximal inhibition (IC50) in test [1] is on record as >> 1e-6 M. On to `C[C@]12CC[C@H]3[C@@H](CCC4NC(=O)CC[C@@]43C)[C@@H]1CC[C@@H]2O` (stereo partly drawn), for which the half-inhibitory concentration (IC50) on Androgen receptor was determined as 930 nM; in test [1], 2.5e-07 M. Take `C[C@]12CC[C@H]3[C@@H](CCC4=CC(=O)CC[C@@]43C)[C@@H]1CC[C@@H]2C(=O)O`: the concentration for half-maximal inhibition (IC50) on Androgen receptor was 8900 nM; in test [1], 6.6e-07 M. Turning to `CCCCCCCCNC(=O)[C@H]1CC[C@H]2[C@@H]3CCC4NC(=O)CC[C@]4(C)[C@H]3CC[C@]12C` (stereo partly drawn), the IC50 at Androgen receptor turned out to be 5200 nM; in test [2], 0.13 nM.

On to `CCCCCCCCN(CCCCCCCC)C(=O)[C@H]1CC[C@H]2[C@@H]3CCC4N(C)C(=O)CC[C@]4(C)[C@H]3CC[C@]12C` (stereo partly drawn), for which the concentration for half-maximal inhibition (IC50) at Androgen receptor turned out to be 46000 nM; in test [2] it was 33 nM. Take `CC(O)[C@H]1[C@H](C)C[C@H]2[C@@H]3CCC4N(C)C(=O)CC[C@]4(C)[C@H]3CC[C@@]21C` (stereo partly drawn): the IC50 came out at 170 nM at Androgen receptor and 2.8 nM in test [2]. As for `CC(=O)N[C@H]1CC[C@H]2[C@@H]3CCC4N(C)C(=O)CC[C@]4(C)[C@H]3CC[C@]12C` (stereo partly drawn), the half-inhibitory concentration (IC50) at Androgen receptor stood at 1400 nM; in test [2], 270 nM. For `CC(C)N(C(=O)[C@H]1CC[C@H]2[C@@H]3CCC4NC(=O)C=C[C@]4(C)[C@H]3CC[C@]12C)C(C)C` (stereo partly drawn), the IC50 was found to be 18000 nM against Androgen receptor and 79 nM in test [2]. `CN1C(=O)CC[C@@]2(C)C1CC[C@@H]1[C@@H]2CC[C@@]2(C)[C@H]1CC[C@@]21CCC(=O)O1` (stereo partly drawn): the results for the 50% inhibitory concentration (IC50) (at Androgen receptor; in test [2]) were 89 nM and 40 nM, respectively. With `CN1C(=O)CC[C@@]2(C)C1CC[C@H]1[C@@H]3CC[C@H](C(=O)NCCO)[C@@]3(C)CC[C@@H]12` (stereo partly drawn), the values for the half-maximal inhibitory concentration (IC50) (on Androgen receptor; in test [2]) were 1700 nM and 93 nM, respectively.

For `CCN(CC)C(=O)[C@H]1CC[C@H]2[C@@H]3CC=C4N(O)C(=O)CC[C@]4(C)[C@H]3CC[C@]12C`, the 50% inhibitory concentration (IC50) against Androgen receptor was 190 nM; in test [2], 220 nM. With `CCN1C(=O)CC[C@@]2(C)C1CC[C@@H]1[C@@H]2CC[C@@]2(C)[C@H]1CC[C@@]21CCCO1` (stereo partly drawn), the IC50 stood at 13000 nM at Androgen receptor and 1170 nM in test [2]. The matching figures for `CC(C#N)[C@H]1CC[C@H]2[C@@H]3CCC4N(C)C(=O)CC[C@]4(C)[C@H]3CC[C@]12C` (stereo partly drawn): 290 nM and 7.6 nM. Regarding `CCN(CC)C(=O)[C@H]1CC[C@H]2[C@@H]3CC[C@H]4N(C)C(=O)C[C@H](C)[C@]4(C)[C@H]3CC[C@]12C`, the IC50 was determined as 16000 nM against Androgen receptor and 86 nM in test [2].

Regarding `CC(C)N(C(=O)[C@H]1CC[C@H]2[C@@H]3CC[C@@H]4N(C)C(=O)CC[C@]4(C)[C@H]3CC[C@]12C)C(C)C`, the concentration for half-maximal inhibition (IC50) against Androgen receptor was greater than 10000 nM; in test [2] it was 1000 nM. For `CN1C(=O)CC[C@@]2(C)C1CC[C@H]1[C@@H]3CC[C@H](C(=O)[O-])[C@@]3(C)CC[C@@H]12.[Na+]` (stereo partly drawn), the results for the IC50 (against Androgen receptor; in test [2]) were 9100 nM and 37 nM, respectively.

For the molecule `CC(CO)[C@H]1CC[C@H]2[C@@H]3CCC4N(C)C(=O)CC[C@]4(C)[C@H]3CC[C@]12C` (stereo partly drawn), the values for the IC50 (on Androgen receptor; in test [2]) were 860 nM and 3.8 nM, respectively. In the same order, the values of `CCC(C)C(=O)[C@H]1CC[C@H]2[C@@H]3CCC4NC(=O)CC[C@]4(C)[C@H]3CC[C@]12C` (stereo partly drawn) are greater than 100000 nM and 1.2 nM. The matching figures for `CCN(CC)C(=O)[C@H]1CCC[C@H]2[C@@H]3CC[C@H]4N(C)C(=O)NC[C@]4(C)[C@H]3CC[C@]12C`: 1600 nM and 500 nM. For `COC(=O)C(C)[C@H]1CC[C@H]2[C@@H]3CCC4N(C)C(=O)CC[C@]4(C)[C@H]3CC[C@]12C` (stereo partly drawn), the concentration for half-maximal inhibition (IC50) at Androgen receptor worked out at 960 nM; in test [2], 22 nM. `CCN(CC)C(=O)[C@H]1CC[C@H]2[C@@H]3CCC4N(C)C(=O)C=C(C#N)[C@]4(C)[C@H]3CC[C@]12C` (stereo partly drawn): the IC50 against Androgen receptor is greater than 10000 nM; in test [2] it was greater than 1000 nM. As to `CCN(CC)C(=O)[C@H]1CC[C@H]2[C@@H]3CC[C@H]4N(C)C(=O)C(=O)C[C@]4(C)[C@H]3CC[C@]12C`, the values for the IC50 (on Androgen receptor; in test [2]) were 50000 nM and 340 nM, respectively.

In the case of `CCNC(=O)[C@H]1CC[C@H]2[C@@H]3CCC4N(C)C(=O)CC[C@]4(C)[C@H]3CC[C@]12C` (stereo partly drawn), the 50% inhibitory concentration (IC50) on Androgen receptor was 1100 nM; in test [2], 12 nM. In the same order, the values of `CCN(CC)C(=O)[C@H]1CC[C@H]2[C@@H]3CC[C@H]4N(C)C(=O)C=C[C@]4(C)[C@H]3CC[C@]12C` are 450 nM and 290 nM. In the same order, the values of `CCCCCCCCNC(=O)[C@H]1CC[C@H]2[C@@H]3CCC4N(C)C(=O)CC[C@]4(C)[C@H]3CC[C@]12C` (stereo partly drawn) are 130 nM and 0.21 nM. In the case of `CCN(CC)C(=O)[C@H]1CC[C@H]2[C@@H]3CC=C4N(N)C(=O)CC[C@]4(C)[C@H]3CC[C@]12C`, the IC50 on Androgen receptor was determined as 5400 nM; in test [2] it was 36 nM. For the molecule `CCC(C)C(=O)[C@H]1CC[C@H]2[C@@H]3CCC4N(C)C(=O)C=C[C@]4(C)[C@H]3CC[C@]12C` (stereo partly drawn), the values for the IC50 (on Androgen receptor; in test [2]) were 64 nM and 120 nM, respectively.
